Counter-ions that a name gives are not always drawn.
target: T1, PPARδ (Homo sapiens, UniProt Q03181); experiment: Transactivation assay (PPARδ GAL4 assay) in transiently transfected HEK293 cells; assay type: cell-based; conditions: luciferase reporter, Table 2
T1 construct: fused to amino acids 147-441 of PPARδ downstream of CMV promoter; expressed in transfected cells; host or cells: HEK293 cells, transiently transfected with pFACMV-PPARδ using Fugene
T1 sequence (Q03181 147-441): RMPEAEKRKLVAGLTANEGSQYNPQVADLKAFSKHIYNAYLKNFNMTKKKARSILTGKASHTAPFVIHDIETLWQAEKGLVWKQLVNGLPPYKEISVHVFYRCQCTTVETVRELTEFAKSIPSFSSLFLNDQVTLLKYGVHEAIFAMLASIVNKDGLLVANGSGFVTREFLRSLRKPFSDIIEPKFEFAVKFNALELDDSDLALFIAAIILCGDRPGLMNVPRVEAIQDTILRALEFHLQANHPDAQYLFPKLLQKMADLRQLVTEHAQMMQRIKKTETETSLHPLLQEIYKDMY
Outline: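 HEK293 cells transiently co-transfected with GAL4 DBD (aa 1-147)–PPARδ (aa 147-441) fusion and 5×GAL4-luciferase reporter, then exposed 24 h to compound (final 0-30 μM) in OptiMEM at 37° C. Luminescence read; activity as percent of GW501516 control, EC50 from sigmoidal dose-response fit.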

| Structure (SMILES) | EC50 [nM] |
| --- | --- |
| CCc1cc(C(=O)c2ccc(OC(F)(F)F)cc2)c(NC(=O)CN2CCCC2(C)C(=O)O)s1 (centres unmarked) [Example 173, 1-{[5-Ethyl-3-(4-trifluoromethoxy-benzoyl)-thiophen-2-ylcarbamoyl]-methyl}-2-methyl-pyrrolidine-2-carboxylic acid] | 100 to 1000 |
| CCc1cc(C(=O)c2ccc(OC(F)(F)F)cc2)c(NC(=O)CC(C)CC(=O)O)s1 (centres unmarked) [Example 174, 4-[5-Ethyl-3-(4-trifluoromethoxy-benzoyl)-thiophen-2-ylcarbamoyl]-3-methyl-butyric acid] | < 100 |
| CCc1cc(C(=O)c2ccc(OC(F)(F)F)cc2)c(NC(=O)C2CCN(CC(=O)O)CC2)s1 [Example 177, {4-[5-Ethyl-3-(4-trifluoromethoxy-benzoyl)-thiophen-2-ylcarbamoyl]-piperidin-1-yl}-acetic acid] | 1000 to 30000 |
| CCc1cc(C(=O)c2ccc(OC(F)(F)F)cc2)c(NC(=O)CN2[C@@H](C(=O)O)CC[C@@H]2c2ccc(F)cc2)s1 [Example 181, (2R,5R)-1-{[5-Ethyl-3-(4-trifluoromethoxy-benzoyl)-thiophen-2-ylcarbamoyl]-methyl}-5-(4-fluoro-phenyl)-pyrrolidine-2-carboxylic acid] | < 100 |
| CCc1cc(C(=O)c2ccc(OC(F)(F)F)cc2)c(NC(=O)CN2[C@@H](C(=O)O)CC[C@@H]2C)s1 [Example 182, (2R,5S)-1-{[5-Ethyl-3-(4-trifluoromethoxy-benzoyl)-thiophen-2-ylcarbamoyl]-methyl}-5-methyl-pyrrolidine-2-carboxylic acid] | < 100 |
| CCc1cc(C(=O)c2ccc(OC(F)(F)F)cc2)c(NC(=O)CN2[C@@H](C(=O)O)CC[C@@H]2c2ccccc2)s1 [Example 184, (2R,5R)-1-{[5-Ethyl-3-(4-trifluoromethoxy-benzoyl)-thiophen-2-ylcarbamoyl]-methyl}-5-phenyl-pyrrolidine-2-carboxylic acid] | < 100 |
| CCc1cc(C(=O)c2ccc(OC(F)(F)F)cc2)c(NC(=O)CN2[C@@H](C(=O)O)CC[C@@H]2C(C)C)s1 [Example 185, (2R,5R)-1-{[5-Ethyl-3-(4-trifluoromethoxy-benzoyl)-thiophen-2-ylcarbamoyl]-methyl}-5-isopropyl-pyrrolidine-2-carboxylic acid] | < 100 |
| CCc1cc(C(=O)c2ccc(Cl)cc2)c(NC(=O)CN2[C@@H](C(=O)O)CC[C@@H]2c2ccccc2)s1 [Example 187, (2R,5R)-1-{[3-(4-Chloro-benzoyl)-5-ethyl-thiophen-2-ylcarbamoyl]-methyl}-5-phenyl-pyrrolidine-2-carboxylic acid hydrochloride] | 100 to 1000 |
| CCc1cc(C(=O)c2ccc(OC(F)(F)F)cc2)c(NC(=O)CN[C@@](C)(CC)C(=O)O)s1 [Example 192, (S)-2-({[5-Ethyl-3-(4-trifluoromethoxy-benzoyl)-thiophen-2-ylcarbamoyl]-methyl}-amino)-2-methyl-butyric acid] | 100 to 1000 |
| CCc1cc(C(=O)c2ccc(OC(F)(F)F)cc2)c(NC(=O)CCSCC(=O)O)s1 [Example 194, {2-[5-Ethyl-3-(4-trifluoromethoxy-benzoyl)-thiophen-2-ylcarbamoyl]-ethylsulfanyl}-acetic acid] | < 100 |
| CCc1cc(C(=O)c2ccc(OC(F)(F)F)cc2)c(NC(=O)CN(C)C2(C(=O)O)CC2)s1 [Example 197, 1-({[5-Ethyl-3-(4-trifluoromethoxy-benzoyl)-thiophen-2-ylcarbamoyl]-methyl}-methyl-amino)-cyclopropanecarboxylic acid] | 100 to 1000 |

Next, values leading:

| EC50 [nM] | Structure (SMILES) |
| --- | --- |
| 100 to 1000 | CCc1cc(C(=O)c2ccc(OCC(F)(F)F)cc2)c(NC(=O)CSCC(=O)O)s1 [Example 175, ({5-Ethyl-3-[4-(2,2,2-trifluoro-ethoxy)-benzoyl]-thiophen-2-ylcarbamoyl}-methylsulfanyl)-acetic acid] |
| 1000 to 30000 | CCc1cc(C(=O)c2ccc(OC(F)(F)F)cc2)c(NC(=O)C2CCCN(CC(=O)O)C2)s1 (centres unmarked) [Example 176, {3-[5-Ethyl-3-(4-trifluoromethoxy-benzoyl)-thiophen-2-ylcarbamoyl]-piperidin-1-yl}-acetic acid] |
| < 100 | CCc1cc(C(=O)c2ccc(OC(F)(F)F)cc2)c(NC(=O)CN2[C@@H](CC)CC[C@@H]2C(=O)O)s1 [Example 183, (2R,5S)-5-Ethyl-1-{[5-ethyl-3-(4-trifluoromethoxy-benzoyl)-thiophen-2-ylcarbamoyl]-methyl}-pyrrolidine-2-carboxylic acid] |
| < 100 | CCc1cc(C(=O)c2ccc(OC(F)(F)F)cc2)c(NC(=O)C(C)N2[C@@H](C(=O)O)CC[C@@H]2C)s1 (stereo partly drawn) [Example 186, (2R,5S)-1-{1-[5-Ethyl-3-(4-trifluoromethoxy-benzoyl)-thiophen-2-ylcarbamoyl]-ethyl}-5-methyl-pyrrolidine-2-carboxylic acid] |
| < 100 | O=C(CN1[C@@H](C(=O)O)CC[C@@H]1c1ccccc1)Nc1sc(Cl)cc1C(=O)c1ccc(OC(F)(F)F)cc1 [Example 188, (2R,5R)-1-{[5-Chloro-3-(4-trifluoromethoxy-benzoyl)-thiophen-2-ylcarbamoyl]-methyl}-5-phenyl-pyrrolidine-2-carboxylic acid hydrochloride] |
| < 100 | CCc1cc(C(=O)c2ccc(OC(F)(F)F)cc2)c(NC(=O)CN2CCCC2C(=O)O)s1 (centres unmarked) [Example 189, 1-{[5-Ethyl-3-(4-trifluoromethoxy-benzoyl)-thiophen-2-ylcarbamoyl]-methyl}-pyrrolidine-2-carboxylic acid] |
| < 100 | CCc1cc(C(=O)c2ccc(OC(F)(F)F)cc2)c(NC(=O)CNC2(C(=O)O)CCCC2)s1 [Example 190, 1-({[5-Ethyl-3-(4-trifluoromethoxy-benzoyl)-thiophen-2-ylcarbamoyl]-methyl}-amino)-cyclopentanecarboxylic acid] |
| 100 to 1000 | CCc1cc(C(=O)c2ccc(OC(F)(F)F)cc2)c(NC(=O)CN[C@@H](CC)C(=O)O)s1 [Example 191, (S)-2-({[5-Ethyl-3-(4-trifluoromethoxy-benzoyl)-thiophen-2-ylcarbamoyl]-methyl}-amino)-butyric acid] |
| 100 to 1000 | CCc1cc(C(=O)c2ccc(OC(F)(F)F)cc2)c(NC(=O)CCN2CCC[C@@H]2C(=O)O)s1 [Example 193, (R)-1-{2-[5-Ethyl-3-(4-trifluoromethoxy-benzoyl)-thiophen-2-ylcarbamoyl]-ethyl}-pyrrolidine-2-carboxylic acid] |
| < 100 | CCc1cc(C(=O)c2ccc(OC(F)(F)F)cc2)c(NC(=O)[C@H](C)SCC(=O)O)s1 [Example 195, {(S)-1-[5-Ethyl-3-(4-trifluoromethoxy-benzoyl)-thiophen-2-ylcarbamoyl]-ethylsulfanyl}-acetic acid] |
| 1000 to 30000 | CCc1cc(C(=O)c2ccc(OC(F)(F)F)cc2)c(NC(=O)CN(C)C(C)(C)C(=O)O)s1 [Example 196, 2-({[5-Ethyl-3-(4-trifluoromethoxy-benzoyl)-thiophen-2-ylcarbamoyl]-methyl}-methyl-amino)-2-methyl-propionic acid] |
| < 100 | CCc1cc(C(=O)c2ccc(OC(F)(F)F)cc2)c(NC(=O)CN(C)[C@@H](C)C(=O)O)s1 [Example 198, (S)-2-({[5-Ethyl-3-(4-trifluoromethoxy-benzoyl)-thiophen-2-ylcarbamoyl]-methyl}-methyl-amino)-propionic acid] |

Reference: US20100063065A1 (Inpharmatica Limited, priority 2005, published 2010)
